Measured values as given in patent US9434711B2 (Janssen Pharmaceutica, NV, priority 2007, dated 2016).
Read-outs that look alike come from different tables or passages of the source.

Target: canine TRPM8 (Canis lupus familiaris, UniProt Q1A7N1)
Test: In Vitro Canine TRPM8 Functional Assay (Ca2+ fluorescence, icilin activation)
Type: cell-based
Details: for inhibition at 0.5 µM: compound at 0.5 μM, read-out: % Inh @ 0.5
Experimental: The functional activity of compounds of the formula (I) was determined by measuring changes in intracellular calcium concentration using a Ca^2+-sensitive fluorescent dye. The changes in fluorescent signal were monitored by a fluorescence plate reader, either a FLIPR™ (Molecular Devices) or FDSS (Hamamatsu).
At 24 hrs prior to assay, HEK293 cells stably expressing canine TRPM8 were seeded in culture medium in black wall, clear-base poly-D-lysine coated 384-well plates (BD Biosciences, NJ, USA) and grown overnight in 5% CO2 at 37° C. On assay day, growth media was removed and cells were loaded with Calcium 3 Dye (Molecular Devices) for 35 min at 37° C., under 5% CO2 and then for 25 min at room temperature and atmosphere. Subsequently, cells were tested for agonist-induced increases in intracellular Ca^2+ levels using FLIPR™ or FDSS. Cells were challenged with a compound of the Formula (I) (at varying concentrations) and intracellular Ca^2+ was measured for 5 min prior to the addition of icilin to all wells to achieve a final concentration that produces approximately an 80% maximal response. EC50 or IC50 values for compounds of the present invention were determined from eight-point dose-response studies. Curves were generated using the average of quadruplicate wells for each data point.

[1] = HEK293 cells stably expressing canine TRPM8, icilin activation, eight-point dose-response, read-out: IC50
[2] = compound at 0.2 μM, canine TRPM8, icilin activation, read-out: % Inh @ 0.2
[3] = canine TRPM8, icilin activation

Sequence of canine TRPM8 (Q1A7N1 1-1104): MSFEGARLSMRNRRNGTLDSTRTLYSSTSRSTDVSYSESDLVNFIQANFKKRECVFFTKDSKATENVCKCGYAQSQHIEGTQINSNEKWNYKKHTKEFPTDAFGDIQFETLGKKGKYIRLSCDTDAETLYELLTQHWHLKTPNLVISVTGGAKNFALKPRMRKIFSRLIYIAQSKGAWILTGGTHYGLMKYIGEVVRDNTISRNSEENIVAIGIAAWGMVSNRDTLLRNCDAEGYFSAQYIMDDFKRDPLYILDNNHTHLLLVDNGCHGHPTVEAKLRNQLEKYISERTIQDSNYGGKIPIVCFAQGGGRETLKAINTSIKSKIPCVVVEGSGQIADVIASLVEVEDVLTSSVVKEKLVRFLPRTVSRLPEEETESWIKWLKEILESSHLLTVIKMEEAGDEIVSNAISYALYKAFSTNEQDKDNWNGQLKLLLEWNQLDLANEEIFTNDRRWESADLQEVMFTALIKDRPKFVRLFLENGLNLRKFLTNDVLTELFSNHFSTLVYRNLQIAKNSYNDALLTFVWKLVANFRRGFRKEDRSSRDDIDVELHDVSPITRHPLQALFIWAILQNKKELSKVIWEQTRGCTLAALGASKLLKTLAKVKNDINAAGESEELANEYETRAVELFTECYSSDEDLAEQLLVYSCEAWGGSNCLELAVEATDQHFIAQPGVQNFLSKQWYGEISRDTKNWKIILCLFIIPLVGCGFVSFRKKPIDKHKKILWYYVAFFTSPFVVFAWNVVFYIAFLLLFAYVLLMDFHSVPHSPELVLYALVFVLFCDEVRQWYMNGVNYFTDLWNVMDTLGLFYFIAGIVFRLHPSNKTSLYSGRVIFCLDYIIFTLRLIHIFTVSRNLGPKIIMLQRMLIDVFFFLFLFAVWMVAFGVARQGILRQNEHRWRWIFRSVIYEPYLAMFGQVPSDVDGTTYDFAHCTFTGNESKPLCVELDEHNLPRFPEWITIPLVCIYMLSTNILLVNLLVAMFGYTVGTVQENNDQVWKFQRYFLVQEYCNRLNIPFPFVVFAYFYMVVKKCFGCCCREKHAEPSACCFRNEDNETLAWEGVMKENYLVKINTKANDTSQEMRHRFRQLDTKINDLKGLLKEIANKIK

Cc1c(N(Cc2ccc(F)c(C(F)(F)F)c2)S(=O)(=O)c2ccc3c(c2)NC(=O)CO3)sc2ccccc12 [Compound 67]
IC50 [1]: 55 nM
% Inh @ 0.2 (μM) (compound at 0.2 μM, canine TRPM8, icilin activation): 77%

Cc1c(N(Cc2ccc(F)c(C(F)(F)F)c2)S(=O)(=O)c2ccc3c(c2)OCCN3C)sc2ccccc12 [Compound 68, N-(4-Fluoro-3-trifluoromethyl-benzyl)-N-(3-methyl-benzo[b]thiophen-2-yl)-4-methyl-3,4-dihydro-2H-benzo[1,4]oxazine-7-sulfonamide]
IC50 [1]: 2 nM
inhibition at 0.2 µM [2]: 99%

Cc1c(N(Cc2ccc(F)c(C(F)(F)F)c2)S(=O)(=O)c2ccc(-c3csnn3)cc2)sc2ccccc12 [Compound 69, N-(4-Fluoro-3-trifluoromethyl-benzyl)-N-(3-methyl-benzo[b]thiophen-2-yl)-4-[1,2,3]thiadiazol-4-yl-benzenesulfonamide]
IC50 [1]: 3 nM
inhibition at 0.2 µM [2]: 96%

Cc1c(N(Cc2ccc(F)c(C(F)(F)F)c2)S(=O)(=O)c2cccc(Oc3ccccc3)c2)sc2ccccc12 [Compound 70, N-(4-Fluoro-3-trifluoromethyl-benzyl)-N-(3-methyl-benzo[b]thiophen-2-yl)-3-phenoxy-benzenesulfonamide]
IC50 [1]: 7 nM
inhibition at 0.2 µM [2]: 99%

COC(=O)CCS(=O)(=O)N(Cc1ccc(F)c(C(F)(F)F)c1)c1sc2ccccc2c1C [Compound 71]
IC50: 18 nM
inhibition at 0.2 µM (read-out: % Inh @ 0.2 (μM)): 98%

Cc1nc(O)nc(O)c1S(=O)(=O)N(Cc1ccc(F)c(C(F)(F)F)c1)c1sc2ccccc2c1C [Compound 72, N-(3-Methyl-benzo[b]thiophen-2-yl)-N-(4-fluoro-3-trifluoromethylbenzyl)-(2,4-dihydroxy-6-methyl-pyrimidine-5-yl)sulfonamide]
IC50 [1]: 26 nM
inhibition at 0.2 µM [2]: 99%

Cc1c(N(Cc2ccc(F)c(C(F)(F)F)c2)S(=O)(=O)c2cccc3c2CN(C(=O)C(F)(F)F)CC3)sc2ccccc12 [Compound 73, N-(4-Fluoro-3-trifluoromethyl-benzyl)-N-(3-methyl-benzo[b]thiophen-2-yl)-2-(2,2,2-trifluoro-acetyl)-1,2,3,4-tetrahydro-isoquinoline-8-sulfonamide]
inhibition at 0.2 µM [2]: 24%

Cc1nn(C)c(C)c1S(=O)(=O)N(Cc1ccc(F)c(C(F)(F)F)c1)c1sc2ccccc2c1C [Compound 74, N-(4-Fluoro-3-trifluoromethyl-benzyl)-N-(3-methyl-benzo[b]thiophen-2-yl)-1,3,5-trimethyl-1H-pyrazole-4-sulfonamide]
IC50 [1]: 21 nM
inhibition at 0.2 µM [2]: 97%

Cc1nc(C)c(S(=O)(=O)N(Cc2ccc(F)c(C(F)(F)F)c2)c2sc3ccccc3c2C)s1 [Compound 75, N-(4-Fluoro-3-trifluoromethyl-benzyl)-N-(3-methyl-benzo[b]thiophen-2-yl)-2,4-dimethyl-thiazole-5-sulfonamide]
IC50 [1]: 18 nM
inhibition at 0.2 µM [2]: 98%

Cc1c(N(Cc2ccc(F)c(C(F)(F)F)c2)S(=O)(=O)c2ccc(Cl)nc2)sc2ccccc12 [Compound 76, N-(4-Fluoro-3-trifluoromethyl-benzyl)-N-(3-methyl-benzo[b]thiophen-2-yl)-6-chloro-pyridine-3-sulfonamide]
IC50 [1]: 21 nM
inhibition at 0.2 µM [2]: 95%

Cc1c(N(Cc2ccc(F)c(C(F)(F)F)c2)S(=O)(=O)c2cccnc2Cl)sc2ccccc12 [Compound 77, N-(4-Fluoro-3-trifluoromethyl-benzyl)-N-(3-methyl-benzo[b]thiophen-2-yl)-2-chloro-pyridine-3-sulfonamide]
IC50 [1]: 22 nM
inhibition at 0.2 µM [2]: 97%

O=S(=O)(c1ccsc1)N(Cc1ccc(F)c(C(F)(F)F)c1)c1cc2ccccc2s1 [Compound 78, N-(Benzo[b]thiophen-2-yl)-N-(4-fluoro-3-trifluoromethyl-benzyl)-thiophene-3-sulfonamide]
IC50 [1]: 22.5 nM
inhibition at 0.2 µM [2]: 102%

Cc1c(N(Cc2ccc(F)c(C(F)(F)F)c2)S(=O)(=O)c2cccc3c2CNCC3)sc2ccccc12 [Compound 79, N-(4-Fluoro-3-trifluoromethyl-benzyl)-N-(3-methyl-benzo[b]thiophen-2-yl)-1,2,3,4-tetrahydro-isoquinoline-8-sulfonamide]
inhibition at 0.2 µM [2]: 69%

O=S(=O)(c1ccccc1)N(CC1CCCCC1)c1sc2ccccc2c1Cl [Compound 80, N-(3-Chloro-benzo[b]thiophen-2-yl)-N-(cyclohexylmethyl)-benzenesulfonamide]
IC50 [1]: 29 nM
inhibition at 0.5 µM [3]: 98%

CC(C)(C)OCCN(c1sc2ccccc2c1Cl)S(=O)(=O)c1ccccc1 [Compound 81, N-(2-tert-Butoxy-ethyl)-N-(3-chloro-benzo[b]thiophen-2-yl)-benzenesulfonamide]
IC50 [1]: 15 nM
inhibition at 0.5 µM [3]: 99%

O=C1CCCN1CCN(c1sc2ccccc2c1Cl)S(=O)(=O)c1ccccc1 [Compound 82, N-(3-Chloro-benzo[b]thiophen-2-yl)-N-[2-(2-oxo-pyrrolidin-1-yl)-ethyl]-benzenesulfonamide]
IC50 [1]: 319 nM
inhibition at 0.5 µM [3]: 87%

CCCCN(c1sc2ccccc2c1Cl)S(=O)(=O)c1ccccc1 [Compound 83, N-(Butyl)-N-(3-chloro-benzo[b]thiophen-2-yl)-benzenesulfonamide]
IC50 [1]: 48 nM
inhibition at 0.5 µM [3]: 101%

C=CCN(c1sc2ccccc2c1Cl)S(=O)(=O)c1ccccc1 [Compound 84, N-(Allyl)-N-(3-chloro-benzo[b]thiophen-2-yl)-benzenesulfonamide]
IC50 [1]: 35 nM
inhibition at 0.5 µM [3]: 100%

O=S(=O)(c1ccccc1)N(CCc1ccccc1)c1sc2ccccc2c1Cl [Compound 85, N-(3-Chloro-benzo[b]thiophen-2-yl)-N-(phenethyl)-benzenesulfonamide]
inhibition at 0.5 µM [3]: 100%

CC(C)(C)OC(=O)NCCN(c1sc2ccccc2c1Cl)S(=O)(=O)c1ccccc1 [Compound 86, N-(3-Chloro-benzo[b]thiophen-2-yl)-N-[2-(carbo-tert-butoxyamino)ethyl]-benzenesulfonamide]
IC50 [1]: 53 nM
inhibition at 0.5 µM [3]: 101%

CN(C)CCN(c1sc2ccccc2c1Cl)S(=O)(=O)c1ccccc1 [Compound 87, N-(3-Chloro-benzo[b]thiophen-2-yl)-N-(2-dimethylamino-ethyl)-benzenesulfonamide]
IC50 [1]: 170 nM
inhibition at 0.5 µM [3]: 94%

CS(=O)(=O)CCN(c1sc2ccccc2c1Cl)S(=O)(=O)c1ccccc1 [Compound 88, N-(3-Chloro-benzo[b]thiophen-2-yl)-N-(2-methanesulfonyl-ethyl)-benzenesulfonamide]
IC50 [1]: 261 nM
inhibition at 0.5 µM [3]: 88%

CC(C)(C)OC(=O)N1CCCC1CN(c1sc2ccccc2c1Cl)S(=O)(=O)c1ccccc1 (centres unmarked) [Compound 89, N-(3-Chloro-benzo[b]thiophen-2-yl)-N-{[1-(carbo-tert-butoxy)pyrrolidin-2-yl]-methyl}-benzenesulfonamide]
inhibition at 0.5 µM [3]: 96%

CC(C)(C)OC(=O)N1CCC(CN(c2sc3ccccc3c2Cl)S(=O)(=O)c2ccccc2)CC1 [Compound 90, N-(3-Chloro-benzo[b]thiophen-2-yl)-N-{[1-(carbo-tert-butoxy)piperidin-4-yl]-methyl}-benzenesulfonamide]
IC50 [1]: 21 nM
inhibition at 0.5 µM [3]: 99%

O=C1NCCN1CCN(c1sc2ccccc2c1Cl)S(=O)(=O)c1ccccc1 [Compound 91, N-(3-Chloro-benzo[b]thiophen-2-yl)-N-[2-(2-oxo-imidazolidin-1-yl)-ethyl]-benzenesulfonamide]
inhibition at 0.5 µM [3]: 33%

O=S(=O)(c1ccccc1)N(CCN1CCOCC1)c1sc2ccccc2c1Cl [Compound 92, N-(3-Chloro-benzo[b]thiophen-2-yl)-N-(2-morpholin-4-yl-ethyl)-benzenesulfonamide]
IC50 [1]: 68.2 nM
inhibition at 0.2 µM [2]: 79%

COC(=O)[C@H](C)CN(c1sc2ccccc2c1C)S(=O)(=O)c1ccccc1 [Compound 93, N-(3-Methyl-benzo[b]thiophen-2-yl)-N-[2(R)-methyl-2-carbomethoxy-ethyl]-benzenesulfonamide]
IC50 [1]: 11 nM
inhibition at 0.2 µM [2]: 98%

COC(=O)[C@@H](C)CN(c1sc2ccccc2c1C)S(=O)(=O)c1ccccc1 [Compound 94, N-(3-Methyl-benzo[b]thiophen-2-yl)-N-[2(S)-methyl-2-carbomethoxy-ethyl]-benzenesulfonamide]
IC50 [1]: 18 nM
inhibition at 0.2 µM [2]: 98%

Cc1c(N(CCN2CCOCC2)S(=O)(=O)c2ccccc2)sc2ccccc12 [Compound 95, N-(3-Methyl-benzo[b]thiophen-2-yl)-N-(2-morpholin-4-yl-ethyl)-benzenesulfonamide]
IC50 [1]: 6 nM
inhibition at 0.2 µM [2]: 97%

Cc1c(N(CCN2CCCCC2)S(=O)(=O)c2ccccc2)sc2ccccc12 [Compound 96, N-(3-Methyl-benzo[b]thiophen-2-yl)-N-(2-piperidin-1-yl-ethyl)-benzenesulfonamide]
IC50 [1]: 4 nM
inhibition at 0.2 µM [2]: 98%

Cc1c(N(CC2CC2)S(=O)(=O)c2ccccc2)sc2ccccc12 [Compound 97, N-(Cyclopropylmethyl)-N-(3-methyl-benzo[b]thiophen-2-yl)-benzenesulfonamide]
IC50 [1]: 14 nM
inhibition at 0.2 µM [2]: 96%

CSCCN(c1sc2ccccc2c1C)S(=O)(=O)c1ccccc1 [Compound 98, N-(3-Methyl-benzo[b]thiophen-2-yl)-N-(2-methylsulfanyl-ethyl)-benzenesulfonamide]
IC50 [1]: 15 nM
inhibition at 0.2 µM [2]: 97%
